From patent US20080160019A1, “SEQUENTIAL COMBINATION THERAPY” (DYAX CORP., priority 2006, published 2008)

Tests used:
[1] = system: BxPC3 (human pancreatic cancer cell line) tumor; assay: Pancreatic cancer xenograft model, tumor size by calipers (Example 3); format: in vivo, nude mice (nu/nu); conditions: as single agents
Experimental: The antitumor activity of combinations of DX-2240 and bevacizumab (anti-VEGF antibody) or sorafenib (multi-kinase inhibitor) were tested in a human tumor xenograft model. BxPC3 (human pancreatic cancer cell line) tumor fragments harvested from host nude mice (nu/nu) bearing subcutaneous BxPC-3 tumors were implanted subcutaneously into female nude mice (study animals) and allowed to form tumors. Mice were pair matched by tumor size and randomized into the various treatment groups when the tumors reached approximately 100 mm^3 (about 18 days following tumor implantation). The animals were assorted into the treatment groups shown in Table 1 (“Start” refers to the day on which treatment was begun). DX-2240 was administered by intraperitoneal (IP) injection at 20 mg/kg; bevacizumab was administered by IP injection at 10 mg/kg, sorafenib was administered orally at 60 mg/kg (for a total of 9 doses), and the control IgG (palivizumab, an antibody of the same isotype as DX-2240) was administered by IP injection at 20 mg/kg at the indicated dosing start dates and dosing regimens. An additional positive control group (group 13) was included: these animals were dosed with gemcitabine at 40 mg/kg Q3d for a total of four doses.
Tumor size was evaluated every three to four days using calipers.

[2] = system: DU145 prostate cancer cells; assay: Prostate cancer xenograft model, tumor volume (Example 4); format: in vivo, athymic nu/nu mice; conditions: bevacizumab alone at 12 mg/kg, Q5d
Experimental: DU145 prostate cancer cells were injected subcutaneously into athymic nu/nu mice and tumors were allowed to form. Animals were assorted into groups of 9-10 mice, then treated with DX-2240 (20 mg/kg by IP injection, […]), an isotype-matched antibody control (A2, 20 mg/kg by IP injection, Q2d), bevacizumab (12 mg/kg by IP injection, […]), DX-2240 20 mg/kg Q2d+bevacizumab (DX-2240 20 mg/kg Q2d+bevacizumab at 12 mg/kg, […], starting at day 25), DX-2240 20 mg/kg Q4d+bevacizumab (DX-2240 20 mg/kg Q4d+bevacizumab at 12 mg/kg, […], starting at day 25), DX-2240 10 mg/kg Q4d+bevacizumab (DX-2240 10 mg/kg Q4d+bevacizumab at 12 mg/kg, […], starting at day 25), DX-2240 5 mg/kg Q4d+bevacizumab (DX-2240 5 mg/kg Q4d+bevacizumab at 12 mg/kg, […], starting at day 25), DX-2240 1 mg/kg Q4d+bevacizumab (DX-2240 1 mg/kg Q4d+bevacizumab at 12 mg/kg, […], starting at day 25), DX-2240+sorafenib (DX-2240 at 20 mg/kg by IP injection, […], sorafenib at 100 mg/kg orally (PO) daily for nine days (QDx9) starting at day 25 and 56), or A2+sorafenib (A2 at 20 mg/kg by IP injection, […], sorafenib 100 mg/kg PO QDx9 starting at day 25 and 56). After day 34, mice in the DX-2240 only and A2 only groups were given an additional agent, and were no longer available as controls for this experiment. Tumor volume was measured twice weekly.

bevacizumab: anti-VEGF antibody
tumor size as compared to control [1]: reduced tumor size
tumor size [2]: tumor shrinkage
